Results reported in patent US20180116976A1, “METHODS AND COMPOSITIONS FOR UNWANTED OR ABNORMAL MUSCLE CONTRACTIONS” (Flex Pharma, Inc., priority 2015, published 2018).

Tests used:
[1] = tested on: human dorsal root ganglion neurons; experiment: Calcium flux (ΔF/F) in human dorsal root ganglion neurons ex vivo, TRPV1/TRPA1 activation; assay type: cell-based; conditions: calcium-sensitive dye, FIG. 1
Experimental: Selective TRPV1 and TRPA1 activation responses were measured for exemplary compositions of the invention in human dorsal root ganglion neurons ex vivo and compared with TRPV1/TRPA1 co-activation responses. The degree of neuron activation was assessed by inward calcium flux using neurons preloaded with a calcium-sensitive fluorescent dye. Intracellular cellular calcium levels were then monitored by wide-field fluorescent microscopy. The change in intracellular fluorescence relative to baseline fluorescence (ΔF/F) was quantified, and the results are shown in FIG. 1.

[2] = tested on: flexor hallucis brevis muscle; experiment: Electrically induced flexor hallucis brevis cramp, surface EMG AUC over 140 seconds, additional beverage study (Example 3); assay type: in vivo, human; conditions: 29 mg, 140 second observation period; FIG. 10
Experimental: An additional study was carried out comparing exemplary compounds and combinations thereof as summarized in Table 3 below, each administered as a beverage formulation.
Cramp intensity was assessed by integrating the area under the curve (AUC) of a surface EMG signal over a 140 second observation period post electrical induction of a cramp in the flexor hallucis brevis muscle as previously described. […] The overall change between the pre-treatment baseline and mean vehicle control response was minimal.

[3] = tested on: flexor hallucis brevis muscle; experiment: Externally-induced cramping of the flexor hallucis brevis muscle, 6-shogaol orally disintegrating tablet (Example 4); assay type: in vivo, human; conditions: ODT
Experimental: The goal of this study was to assess the effectiveness of 6-shogaol formulated as an orally disintegrating tablet (ODT) in the prevention of externally-induced cramping of the flexor hallucis brevis muscle of the foot. The study was carried in two parts. The first part was an open label, placebo-controlled, 5-visit study evaluating vehicle (lactose and sucrose), 0.5 mg, 2.5 mg, 10/6.9 mg, and 40/33 mg 6-shogaol. The second part was a randomized, single-blind, placebo-controlled, 4-visit study evaluating vehicle (lactose and sucrose), 0.5 mg, 20/18.5 mg, and 60/55.5 mg 6-shogaol. Screening of subjects occurred within 28 days in a similar manner as described above in Example 1. Note that dosage values separated by a “/” indicate the nominal versus the actual doses as determined by Chromadex.
The collected EMG data was analyzed for the baseline adjusted integrated EMG (IEMG) level, also referred to as area under the curve (AUC), and cramp duration, as described in Example 1. FIG. 11 and FIG. 12 summarize the average change and ratio in AUC values for all subjects compared by administered treatment both parts of the study. […] The data in FIG. 15 and FIG. 16 further support these findings.

Structure (SMILES)	neuron activation response, change in intracellular fluorescence relative to baseline (ΔF/F) [1]	decrease in cramp intensity compared to other treatments tested [2]	reduction in AUC compared to its study specific vehicle control [2]	cramp inhibition ([3]; 0.5 mg dosage level)	cramp inhibition ([3]; 2.6 mg dosage level)	cramp inhibition ([3]; 6.9 mg)	time over which cramp inhibition was sustained ([3]; 33 mg and 55 mg dosage levels)	cramp inhibition ([3]; 33 mg dosage level)	cramp inhibition ([3]; 55 mg dosage level)
CCCCCC(O)CC(=O)CCc1ccc(O)c(OC)c1 (stereo not shown) [Treatment 6-gingerol, 6-gingerol]	synergistic response	–	–	–	–	–	–	–	–
CCCCC/C=C/C(=O)CCc1ccc(O)c(OC)c1 [Treatment 6-shogaol, 6-shogaol]	synergistic response	greater decrease	5 fold	no efficacy	no efficacy	roughly 40%	≥ 8 h	75%	75%
